Experimental data published in patent US20030064967A1 (priority 2001, published 2003).
Values joined by “and” are separate entries in the source; they are usually repeats but may differ in a detail not shown here. Identical values can stand only once.

Columns and labels:
[1] = system: hypercholesterolemic hamsters; format: in vivo
Protocol: The following assay was conducted to HDL elevation in hamsters. Male Golden Syrian hamsters weighing 110-120 g were obtained from Charles River Laboratories (Wilmington, Mass.). Hamsters were housed individually with wood chip bedding and soft nesting material with lights on a 6 A.M. and off at 6 p.m. Upon arrival the hamsters were acclimated for three days on standard rodent chow and water (Purina rodent chow 5001) ad libitum. Prior to dosing, the hamsters were made hypercholesterolemic by feeding them a powdered diet supplemented with 0.5% cholesterol and 10% coconut oil (Harlan Teklad diet #97235) for one week. Water was added to the powdered chow to form a paste and the chow paste rolled into balls with each animal receiving 20 g of chow paste per day in stainless steel bowls. Chow intake was recorded daily. Body weights were recorded after one week and at the end of the end of the study. Hamsters were distributed into treatment groups after the one-week pretreatment period such that each group had similar average body weights.
Compounds were added to a high cholesterol chow paste and administered as an admixture at the same time each morning for two weeks. At the end of the treatment period the hamsters were fasted in the late afternoon on the day prior to blood collection. Fasting was achieved by transferring the hamsters to clean cages and removing chow stored in cheek pouches. Hamsters were anesthetized with ketamine/rompun solution. When unresponsive to toe pinch and still respiring, blood was collected via cardiac puncture from which plasma was separated and frozen at −80° C.
Lipoproteins were isolated from whole plasma by Fast Phase Liquid Chromatography (FPLC). Cholesterol and triglyceride concentrations in the different lipoprotein fractions were determined by enzymatic methods using a CX-5 chemical analyzer and standard Beckman reagents.
A Dunnetts test was used to compare the experimental and control groups. P<0.05: was considered significant.

[2] = system: human apo A-1 transgenic mice; assay: HDL cholesterol and human apoAI levels in human apo-A1 transgenic mice (InVivo II); format: in vivo
Protocol: The following assay was conducted to evaluate the effect of Compound A on HDL cholesterol levels in Human apo-A1 transgenic mice. Six-eight week old male human apo A-1 transgenic mice (catolog number JR 1927) were obtained from Jackson Labs. Upon arrival the mice were acclimated for three days on standard rodent diet and water ad libitum. Mice were then given a diet supplemented with 1.25% cholesterol, 7.5% cocoa butter and 0.5% sodium cholate for two weeks. Compound A was administered to the animals by gavage in methylcellulose at a dose of 150 mg/kg/d for two weeks concomitant with the high fat diet. At the end of the treatment period the mice were fasted overnight and then euthanized by CO2 inhalation. Blood was collected by cardiac puncture. Plasma was fractionated by fast phase liquid chromatography and cholesterol in the different lipoprotein fractions determined by an enzymatic assay. An ELISA was completed shoing an increase of h-apoAI of 65%.

HepG2 cells [3] = assay: Cell culture assay and ELISA for apoAI HDL increase in HepG2 cells; format: cell-based, human
Protocol: A cell culture assay and ELISA was conducted to measure apoAi HDL increase in HepG2 cells were obtained from the American Type Culture Collection (Rockville, Md.). Fetal bovine serum (FBS) was purchased from Gibco Laboratories. Cells were cultured in minimum essential medium (MEM) containing 10% FBS, and 100 μg/mL of streptomycin, 100 unit/mL of penicillin, and 4 mM of glutamine (Gibco/BRL). Cells were grown for 2 days till they are 80% confluent in 6-well, or 12-well plates before studies. In all cases medium was changed every other day. To measure apoAI, 96-well microtiter plates were coated with a 1:1000 diluted mixture of three monoclonal antibodies against human apoAI (A05, A17, and A44) for 2 h and incubated in succession with HDL3 (0 to 15 ng/well), sheep polyclonal anti-apoAI serum (Boehringer Mannheim), alkaline phosphatase-labeled rabbit anti-sheep (Cappel), and p-nitrophenyl phosphate (1 mg/mL in 10 mmol/L ethanolamine, 0.5 mmol/L MgCl2, pH 9.5), for 2, 1 and 1 h respectively at 37° C. The plates were washed three times between different incubations. The absorbance at 405 nm was determined by using a Bio-Rad model 550 microplate reader (Bio-Rad).

HepG2 cells [4] = assay: Uptake of 3[H]cholesteryl hexadecyl ether-labeled HDL in HepG2 cells; format: cell-based; details: for % 3[H]-CE uptake: 12.5 μM compound, 20-50 μg/mL 3[H]-CE HDL, 3.5 h, 37° C.; for clearance / selective uptake of cholesteryl ester: HepG2 cells
Protocol: An in vitro assay was conducted to measure the uptake of ^3[H]cholesteryl Hexadecyl Ether-labeled HDL in HepG2 cells. ^3[H]cholesteryl Hexadecyl Ether-labeled HDL was prepared as described by Rodrigueza et al. (Rodrigueza W. V. et al. (1999) J. Biol. Chem. 274:20344-20350). 40 μCi of ^3[H]hexadecyl ether (40-60 Ci/mmol, NEN life Sciences Products) were incubated with 5 mg of HDL3 and 240 mg of heat-inactivated lipoprotein-deficient plasma, 0.01% aprotinin in a polypropylene tube sealed with nitrogen gas for 40 h at 37° C. according to the method of Terpstra et al . ^3[H]-CE enriched HDL was re-isolated by flotation ultracentrifugation and dialyzed against phosphate-buffered saline (PBS). To perform CE uptake studies, HepG2 cells, seeded in 6 or 12 well plates were grown for 2 days till 80% confluent and, then treated with compounds in 1% RSA-DMEM medium for 24 h. The next day, cells were treated with 12.5 μM compounds and 20-50 μg/mL of ^3[H]-CE HDL for 3.5 h at 37° C. After incubation, cells were washed 4 times with PBS/BSA and 2 times with PBS, followed by addition of 0.1 N NAOH. Cells were collected, and radioactivity was measured in counts per minute and expressed as percent of ^3[H]-CE delivered to cells.

HepG2 cells [5] = assay: Internalization and degradation of 125I-HDL3 by HepG2 cells; format: cell-based
Protocol: In another aspect of the invention, compounds that increase the levels of plasma HDL holoproteins can be selected using the following process. First, the compound is added to a hepatic model, preferably hepatic cells, more preferably HepG2 cells. Labeled apoAI-HDL, preferably a radioactive isotope label, more preferably ^125I, in the presence or absence of compounds is then added to the cells. The […] labeled apoAI-HDL in the conditioned medium represents degraded labeled apoAI-HDL. After washing and detaching, cells are centrifuged. Labeled apoAI-HDL in the cellular fraction represents internalized HDL holoprotein; whereas, label in the supernatant represents cell surface bound apoAI-HDL that has been dissociated. Increased amounts of labeled HDL in cells treated with compounds versus cells not treated with compounds indicates increased degradation, internalization, or binding to the cell surface. Compounds are selected which […] the amount of apoAI-HDL label in the cellular fraction of the cells contacted with a test compound compared to the amount of label in the cellular fraction of the cells not contacted with the test compound.
In another aspect of the invention, compounds that increase the levels of plasma HDLc can be selected by contacting a hepatic model, preferably hepatic cells, more preferably HepG2 cells with test compounds. Labeled apoAI-HDL, preferably a radioactive isotope label, more preferably ^125I, in the presence or absence of compounds is then added to the cells. Label in the conditioned medium represents degraded labeled-HDL. After washing and detaching, cells are centrifuged. Label in the cellular fraction represents internalized HDL holoprotein; whereas, label in the supernatant represents cell surface bound apoAI-HDL that has been dissociated. Increased amounts of label in cells treated with compounds versus cells not treated with compounds indicates increased degradation, internalization, or binding of apoAI-HDL to the cell surface. […]

apoAI = assay: Synthesis of apoAI
[6] = format: in vivo; details: one study; 150 mg/kg/d by gavage in methylcellulose

For CC(C)(Sc1cc(C(C)(C)C)c(O)c(C(C)(C)C)c1)Sc1cc(C(C)(C)C)c(OC(=O)CCCC(=O)O)c(C(C)(C)C)c1 [Compound A, Pentanedioic Acid, mono[4-[[1-[[3,5-bis(1,1-dimethylethyl)-4-hydroxyphenyl]thio]-1-methylethyl]thio]-2,6-bis(1,1-dimethylethyl)phenyl]ester], the “HDLc elevation, range of three experiments” value ([1]; 150 mg/kg/d, two weeks) was 5-44%, the body weight ([1]; 150 mg/kg/d, two weeks) was “all animals gained weight” and the tolerability ([1]; 150 mg/kg/d, two weeks) was “well tolerated”. For the same compound, the “HDLc elevation compared to untreated controls” value ([1]; average of three experiments, 150 mg/kg/d, two weeks, in chow) was 22%, the “LDLc reduction compared to controls” value ([1]; average, n=3, 150 mg/kg/d, two weeks) was 29% and the “increase in HDL cholesterol levels (FIG. 1)” value ([1]; hypercholesterolemic hamsters) was 24%. The “VLDL cholesterol reduction compared to controls” value ([1]; n=3, 150 mg/kg/d, two weeks) was 42%, the “VLDL cholesterol reduction, range” value ([1]; n=3, 150 mg/kg/d, two weeks) was 22-53% and the “triglycerides reduction compared to controls” value ([1]; n=3, 150 mg/kg/d, two weeks) was 24%. The “triglycerides reduction, range” value ([1]; n=3, 150 mg/kg/d, two weeks) was 7-33%, the “increase of human apoAI (ELISA)” value ([2]; 150 mg/kg/d by gavage, two weeks, high fat diet) was 64% and 65% and the “increase in HDL cholesterol (FIG. 7)” value ([2]; hypercholesterolemic human apo-AI transgenic mice) was 71%. For the same compound, the “% increase apoAI HDL” value (HepG2 cells [3]) was 33%, the “% 3[H]-CE uptake” value (HepG2 cells [4]) was 42% and the “clearance / selective uptake of cholesteryl ester” value (HepG2 cells [4]) was “enhance the clearance of cholesteryl ester”. The “degradation of 125I-HDL3” value (HepG2 cells [5]) was “decreases degradation” and the “internalization of 125I-HDL3 / HDL holoprotein uptake” value (HepG2 cells [5]) was “decreases internalization”.
With COC(=O)CCCC(=O)Oc1c(C(C)(C)C)cc(SC(C)(C)Sc2cc(C(C)(C)C)c(O)c(C(C)(C)C)c2)cc1C(C)(C)C [Compound D, Pentanedioic Acid, [4-[1-[[3,5-bis(1,1-dimethylethyl)-4-hydroxyphenyl]thio]-1-methylethyl]-thio-2,6-bis(1,1-dimethylethyl)phenyl], Methyl Ester] the “% increase apoAI HDL” value (HepG2 cells [3]) was 27%.
In the case of CC(C)(Sc1cc(C(C)(C)C)c(O)c(C(C)(C)C)c1)Sc1cc(C(C)(C)C)c(O)c(C(C)(C)C)c1 [Probucol, 4,4′-(isopropylidenedithio) bis(2,6-di-tert-butylphenol), reference compound], the “% increase apoAI HDL” value (HepG2 cells [3]) was −21%, the “% 3[H]-CE uptake” value (HepG2 cells [4]) was 13% and the “internalization of 125I-HDL3 / HDL holoprotein uptake” value (HepG2 cells [5]) was “reduced HDL holoprotein uptake”. For the same compound, the “effect on synthesis of apoAI” value (apoAI) was “reduced the synthesis of apoAI”.
With CC(C)(Sc1cc(C(C)(C)C)c(O)c(C(C)(C)C)c1)Sc1cc(C(C)(C)C)c(OC(=O)CCCOS(=O)(=O)[O-])c(C(C)(C)C)c1.[Na+] [Compound B, 4-[4-[1-[[3,5-bis(1,1-dimethylethyl)-4-hydroxyphenyl]thio]-1-methylethyl]-thio-2,6-bis-(1,1-dimethyl-ethyl)phenoxy]-4-oxo-1-butyl Sodium Sulfate] the “% increase apoAI HDL” value (HepG2 cells [3]) was 26%, the “% 3[H]-CE uptake” value (HepG2 cells [4]) was 44% and the “clearance / selective uptake of cholesteryl ester” value (HepG2 cells [4]) was “enhance the clearance of cholesteryl ester”. The mortality [6] was “all of the mice died”.
In the case of CC(C)(Sc1cc(C(C)(C)C)c(O)c(C(C)(C)C)c1)Sc1cc(C(C)(C)C)c(OC(=O)COCC(=O)O)c(C(C)(C)C)c1 [Compound C, Carboxymethoxyacetic Acid, mono[4-[1-[[3,5-bis(1,1-dimethylethyl)-4-hydroxyphenyl]thio]-1-methyl-ethyl]-thio-2,6-bis(1,1-dimethylethyl)phenyl]ester], the “% increase apoAI HDL” value (HepG2 cells [3]) was 47%.
